Source: ChEMBL document CHEMBL4699612, “Discovery of thiosemicarbazone-containing compounds with potent anti-proliferation activity against drug-resistant K562/A02 cells” (Bioorg Med Chem Lett, 2020)

Legend:
K562 = experiment: Antiproliferative activity against human K562 cells by MTT assay; format: functional, cell-based
K562/A02 = experiment: Antiproliferative activity against human K562/A02 cells overexpressing P-gp by MTT assay; format: functional, cell-based
[1] = Resistance index, ratio of IC50 for human K562/A02 cells to IC50 for human K562 cells; format: functional; parameters: reference not given here
Histone deacetylase 1 = Histone deacetylase 1 (Homo sapiens, UniProt Q13547); experiment: Inhibition of recombinant human HDAC1 using Boc-Lys(Ac)-AMC as substrate incubated for 60 mins by fluorimetric assay
Histone deacetylase 1, sequence (Q13547 whole entry): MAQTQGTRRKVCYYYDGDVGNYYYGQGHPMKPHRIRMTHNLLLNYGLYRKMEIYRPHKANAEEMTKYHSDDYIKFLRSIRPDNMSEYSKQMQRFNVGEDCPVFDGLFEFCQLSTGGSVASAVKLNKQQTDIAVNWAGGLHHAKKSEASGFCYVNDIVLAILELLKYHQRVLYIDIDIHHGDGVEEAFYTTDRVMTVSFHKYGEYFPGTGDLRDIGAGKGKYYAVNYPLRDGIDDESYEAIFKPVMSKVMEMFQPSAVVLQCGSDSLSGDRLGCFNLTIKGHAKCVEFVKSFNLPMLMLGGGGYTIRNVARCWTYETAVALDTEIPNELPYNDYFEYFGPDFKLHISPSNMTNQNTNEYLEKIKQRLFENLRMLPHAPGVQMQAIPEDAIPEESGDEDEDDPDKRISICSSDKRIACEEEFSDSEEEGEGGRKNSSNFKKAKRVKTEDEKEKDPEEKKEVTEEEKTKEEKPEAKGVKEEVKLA

[2] = biological target: T1, Protein deacetylase HDAC6 (Homo sapiens, UniProt Q9UBN7); experiment: Inhibition of recombinant human HDAC6 using Boc-Lys(Ac)-AMC as substrate incubated for 60 mins by fluorimetric assay
T1 sequence (Q9UBN7 whole entry): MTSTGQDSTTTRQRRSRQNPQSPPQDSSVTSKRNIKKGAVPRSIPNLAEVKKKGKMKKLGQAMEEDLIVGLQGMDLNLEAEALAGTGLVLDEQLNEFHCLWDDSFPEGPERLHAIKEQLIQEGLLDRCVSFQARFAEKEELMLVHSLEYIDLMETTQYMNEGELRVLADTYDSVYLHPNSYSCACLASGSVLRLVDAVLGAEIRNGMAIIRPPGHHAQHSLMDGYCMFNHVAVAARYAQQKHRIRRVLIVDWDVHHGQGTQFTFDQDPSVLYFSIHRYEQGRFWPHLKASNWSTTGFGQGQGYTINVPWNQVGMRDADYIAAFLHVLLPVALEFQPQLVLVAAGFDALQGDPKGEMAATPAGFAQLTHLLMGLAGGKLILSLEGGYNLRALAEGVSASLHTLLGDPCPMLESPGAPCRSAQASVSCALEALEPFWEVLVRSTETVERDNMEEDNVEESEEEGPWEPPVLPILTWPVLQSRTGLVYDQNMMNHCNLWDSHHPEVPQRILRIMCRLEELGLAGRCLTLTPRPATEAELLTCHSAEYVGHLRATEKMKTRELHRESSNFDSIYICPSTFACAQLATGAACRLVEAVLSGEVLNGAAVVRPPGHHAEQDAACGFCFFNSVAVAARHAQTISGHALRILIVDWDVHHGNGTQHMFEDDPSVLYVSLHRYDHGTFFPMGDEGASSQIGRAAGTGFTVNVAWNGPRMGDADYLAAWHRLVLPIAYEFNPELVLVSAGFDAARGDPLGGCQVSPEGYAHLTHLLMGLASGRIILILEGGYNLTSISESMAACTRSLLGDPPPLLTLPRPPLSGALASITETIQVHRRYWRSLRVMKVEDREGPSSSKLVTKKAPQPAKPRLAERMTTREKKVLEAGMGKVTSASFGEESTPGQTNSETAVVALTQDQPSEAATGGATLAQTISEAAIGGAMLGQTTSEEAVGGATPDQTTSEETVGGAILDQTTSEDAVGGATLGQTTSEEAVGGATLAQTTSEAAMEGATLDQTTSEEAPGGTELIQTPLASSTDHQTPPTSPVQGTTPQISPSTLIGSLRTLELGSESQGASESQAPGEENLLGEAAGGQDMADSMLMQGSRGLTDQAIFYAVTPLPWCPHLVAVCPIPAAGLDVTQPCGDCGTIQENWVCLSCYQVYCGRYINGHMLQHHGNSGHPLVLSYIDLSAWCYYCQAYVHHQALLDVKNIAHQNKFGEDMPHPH

Histone deacetylase 8 = biological target: T2, Histone deacetylase 8 (Homo sapiens, UniProt Q9BY41); experiment: Inhibition of recombinant human HDAC8 using Boc-Lys(Ac)-AMC as substrate incubated for 60 mins by fluorimetric assay
T2 sequence (Q9BY41 whole entry): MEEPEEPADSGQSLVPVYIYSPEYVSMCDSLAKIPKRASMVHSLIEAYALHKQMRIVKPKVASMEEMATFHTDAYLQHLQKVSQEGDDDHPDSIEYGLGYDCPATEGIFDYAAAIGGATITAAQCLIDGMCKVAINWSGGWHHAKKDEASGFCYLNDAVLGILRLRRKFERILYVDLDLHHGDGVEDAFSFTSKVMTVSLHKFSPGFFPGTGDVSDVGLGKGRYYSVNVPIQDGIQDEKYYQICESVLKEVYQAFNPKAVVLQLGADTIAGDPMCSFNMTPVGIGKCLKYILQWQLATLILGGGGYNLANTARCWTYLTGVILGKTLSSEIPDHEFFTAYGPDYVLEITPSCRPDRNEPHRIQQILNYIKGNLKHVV

IC50 (K562) [µM]	IC50 (K562/A02) [µM]	IC50 (Histone deacetylase 1) [µM]	IC50 [2] [µM]	IC50 (Histone deacetylase 8) [µM]	SMILES	Ratio IC50 [1]
0.83	23.4				COc1cccc2c1C(=O)c1c(O)c3c(c(O)c1C2=O)C[C@@](O)(C(=O)CO)C[C@@H]3O[C@H]1C[C@H](N)[C@H](O)[C@H](C)O1.Cl [DOXORUBICIN HYDROCHLORIDE]	28.21
2.89	4.53				O=C(CCCCCNC(=S)N/N=C(\c1ccccc1)c1ccc([N+](=O)[O-])cc1)NO	1.57
3.84	3.57				C/C(=N\NC(=S)NCCCCCC(=O)NO)c1cccc(C)c1	0.93
3.56	2.91				COc1ccccc1/C(=N/NC(=S)NCCCCCC(=O)NO)c1ccccc1	0.82
4.34	3.15				Cc1ccc(/C(=N/NC(=S)NCCCCCC(=O)NO)c2ccccc2)cc1	0.73
1.63	0.94	0.0711	0.0468	> 5	O=C(CCCCCNC(=S)N/N=C(\c1ccccc1)c1cccc([N+](=O)[O-])c1)NO	0.58
> 10	> 10				COc1ccccc1/C(C)=N/NC(=S)NCCCC(=O)NO	
1.4	0.89				C/C(=N\NC(=S)NCCCCCC(=O)NO)c1cccc(C(F)(F)F)c1	0.64
4.63	6.01				O=C(CCCCCNC(=S)N/N=C(\c1ccccc1)c1ccccc1F)NO	1.3
0.61	0.98				Cc1ccc(NC(=O)c2ccc(CN3CCN(C)CC3)cc2)cc1Nc1nccc(-c2cccnc2)n1 [IMATINIB]	1.61
2.33	1.31				O=C(CCCCCNC(=S)N/N=C(\c1ccccc1)c1ccccc1[N+](=O)[O-])NO	0.56
3.43	3.02	> 5	> 5	> 5	CN(C)C(=S)NN=C(c1ccccn1)c1ccccn1	0.88
